In PubChem BioAssay (NCI):
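A five-concentration, 48-hour dose response in 96-well plates underlies each endpoint, interpolated linearly between surrounding concentrations. At the TGI there is no net growth.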

Columns and labels:
Assay in all cases: NCI tumour cell line growth inhibition, 48 h
786-0 renal = test system: 786-0 renal
A498 renal = test system: A498 renal
A549 NSCLC = test system: A549 NSCLC
ACHN renal = test system: ACHN renal
CAKI-1 renal = test system: CAKI-1 renal
CCRF-CEM leukemia = test system: CCRF-CEM leukemia
COLO 205 colon = test system: COLO 205 colon
DLD-1 colon = test system: DLD-1 colon
DMS 114 small cell lung = test system: DMS 114 small cell lung
DMS 273 small cell lung = test system: DMS 273 small cell lung
EKVX NSCLC = test system: EKVX NSCLC
HCC-2998 colon = test system: HCC-2998 colon
HCT-116 colon = test system: HCT-116 colon
HCT-15 colon = test system: HCT-15 colon
HL-60(TB) leukemia = test system: HL-60(TB) leukemia
HOP-18 NSCLC = test system: HOP-18 NSCLC
HOP-62 NSCLC = test system: HOP-62 NSCLC
HOP-92 NSCLC = test system: HOP-92 NSCLC
HT29 colon = test system: HT29 colon
IGROV1 ovarian = test system: IGROV1 ovarian
K-562 leukemia = test system: K-562 leukemia
KM12 colon = test system: KM12 colon
KM20L2 colon = test system: KM20L2 colon
LOX IMVI melanoma = test system: LOX IMVI melanoma
LXFL 529 NSCLC = test system: LXFL 529 NSCLC
M14 melanoma = test system: M14 melanoma
M19-MEL melanoma = test system: M19-MEL melanoma
MALME-3M melanoma = test system: MALME-3M melanoma
MOLT-4 leukemia = test system: MOLT-4 leukemia
NCI-H226 lung = test system: NCI-H226 lung
NCI-H23 lung = test system: NCI-H23 lung
NCI-H460 lung = test system: NCI-H460 lung
NCI-H522 lung = test system: NCI-H522 lung
OVCAR-3 ovarian = test system: OVCAR-3 ovarian
OVCAR-4 ovarian = test system: OVCAR-4 ovarian
OVCAR-5 ovarian = test system: OVCAR-5 ovarian
OVCAR-8 ovarian = test system: OVCAR-8 ovarian
RPMI-8226 leukemia = test system: RPMI-8226 leukemia
RXF 393 renal = test system: RXF 393 renal
RXF-631 renal = test system: RXF-631 renal
SF-268 CNS = test system: SF-268 CNS
SF-295 CNS = test system: SF-295 CNS
SF-539 CNS = test system: SF-539 CNS
SK-MEL-2 melanoma = test system: SK-MEL-2 melanoma
SK-MEL-28 melanoma = test system: SK-MEL-28 melanoma
SK-MEL-5 melanoma = test system: SK-MEL-5 melanoma
SK-OV-3 ovarian = test system: SK-OV-3 ovarian
SN12C renal = test system: SN12C renal
SNB-19 CNS = test system: SNB-19 CNS
SNB-75 CNS = test system: SNB-75 CNS
SNB-78 CNS = test system: SNB-78 CNS
SR leukemia = test system: SR leukemia
SW-620 colon = test system: SW-620 colon
TK-10 renal = test system: TK-10 renal
U251 CNS = test system: U251 CNS
UACC-257 melanoma = test system: UACC-257 melanoma
UACC-62 melanoma = test system: UACC-62 melanoma
UO-31 renal = test system: UO-31 renal
XF 498 CNS = test system: XF 498 CNS
MCF7 breast = test system: MCF7 breast
NCI/ADR-RES ovarian = test system: NCI/ADR-RES ovarian
P388 leukemia = test system: P388 leukemia
P388/ADR leukemia = test system: P388/ADR leukemia
SN12K1 renal = test system: SN12K1 renal

## N#Cc1ccc(/C=C(/C(=O)c2ccccc2)c2ccccc2)cc1
786-0 renal
  TGI: 15.5 µM
A498 renal
  TGI: 40 µM
A549 NSCLC
  TGI: 44.2 µM
ACHN renal
  TGI: 33.1 µM
CAKI-1 renal
  TGI: 32.1 µM
CCRF-CEM leukemia
  TGI: > 29.1 µM
COLO 205 colon
  TGI: 37.3 µM
DLD-1 colon
  TGI: 13 µM
DMS 114 small cell lung
  TGI: 31.5 µM
DMS 273 small cell lung
  TGI: 26.2 µM
EKVX NSCLC
  TGI: 42.9 µM
HCC-2998 colon
  TGI: 30.6 µM
HCT-116 colon
  TGI: 11.3 µM
HCT-15 colon
  TGI: 30.4 µM
HL-60(TB) leukemia
  TGI: 9.81 µM
HOP-18 NSCLC
  TGI: > 55.1 µM
HOP-62 NSCLC
  TGI: 40.2 µM
HOP-92 NSCLC
  TGI: 39.7 µM
HT29 colon
  TGI: 22.1 µM
IGROV1 ovarian
  TGI: > 57.4 µM
K-562 leukemia
  TGI: > 24.7 µM
KM12 colon
  TGI: 10.1 µM
KM20L2 colon
  TGI: 31.2 µM
LOX IMVI melanoma
  TGI: 10.6 µM
LXFL 529 NSCLC
  TGI: 20.4 µM
M14 melanoma
  TGI: 27.8 µM
M19-MEL melanoma
  TGI: 31.8 µM
MALME-3M melanoma
  TGI: 29.1 µM
MOLT-4 leukemia
  TGI: 10.4 µM
NCI-H226 lung
  TGI: 31.5 µM
NCI-H23 lung
  TGI: 35.2 µM
NCI-H460 lung
  TGI: 47.5 µM
NCI-H522 lung
  TGI: 29.2 µM
OVCAR-3 ovarian
  TGI: 48.4 µM
OVCAR-4 ovarian
  TGI: 26.9 µM
OVCAR-5 ovarian
  TGI: 35.4 µM
OVCAR-8 ovarian
  TGI: 22.1 µM
RPMI-8226 leukemia
  TGI: 8.82 µM
RXF 393 renal
  TGI: 39.9 µM
RXF-631 renal
  TGI: 29.8 µM
SF-268 CNS
  TGI: 41.1 µM
SF-295 CNS
  TGI: 35.2 µM
SF-539 CNS
  TGI: 42 µM
SK-MEL-2 melanoma
  TGI: 33.2 µM
SK-MEL-28 melanoma
  TGI: 32.7 µM
SK-MEL-5 melanoma
  TGI: 26.8 µM
SK-OV-3 ovarian
  TGI: > 54.6 µM
SN12C renal
  TGI: 25 µM
SNB-19 CNS
  TGI: 50.1 µM
SNB-75 CNS
  TGI: > 57.2 µM
SNB-78 CNS
  TGI: 14.3 µM
SR leukemia
  TGI: 8.4 µM
SW-620 colon
  TGI: 7.31 µM
TK-10 renal
  TGI: 57 µM
U251 CNS
  TGI: 25 µM
UACC-257 melanoma
  TGI: 29.6 µM
UACC-62 melanoma
  TGI: 31.2 µM
UO-31 renal
  TGI: 28.9 µM
XF 498 CNS
  TGI: 16.4 µM

## C[P+](C)(C)C
786-0 renal
  TGI: > 100 µM
A549 NSCLC
  TGI: > 100 µM
ACHN renal
  TGI: > 100 µM
CAKI-1 renal
  TGI: > 100 µM
CCRF-CEM leukemia
  TGI: > 100 µM
COLO 205 colon
  TGI: > 100 µM
DLD-1 colon
  TGI: > 100 µM
DMS 114 small cell lung
  TGI: > 100 µM
EKVX NSCLC
  TGI: > 100 µM
HCC-2998 colon
  TGI: > 100 µM
HCT-116 colon
  TGI: > 100 µM
HCT-15 colon
  TGI: > 100 µM
HL-60(TB) leukemia
  TGI: > 100 µM
HOP-18 NSCLC
  TGI: > 100 µM
HOP-62 NSCLC
  TGI: > 100 µM
HOP-92 NSCLC
  TGI: > 100 µM
HT29 colon
  TGI: > 100 µM
IGROV1 ovarian
  TGI: > 100 µM
K-562 leukemia
  TGI: > 100 µM
KM12 colon
  TGI: > 100 µM
KM20L2 colon
  TGI: > 100 µM
LOX IMVI melanoma
  TGI: > 100 µM
LXFL 529 NSCLC
  TGI: > 100 µM
M14 melanoma
  TGI: > 100 µM
M19-MEL melanoma
  TGI: > 100 µM
MALME-3M melanoma
  TGI: > 100 µM
MOLT-4 leukemia
  TGI: > 100 µM
NCI-H226 lung
  TGI: > 100 µM
NCI-H23 lung
  TGI: > 100 µM
NCI-H460 lung
  TGI: > 100 µM
OVCAR-3 ovarian
  TGI: > 100 µM
OVCAR-4 ovarian
  TGI: > 100 µM
OVCAR-5 ovarian
  TGI: > 100 µM
OVCAR-8 ovarian
  TGI: > 100 µM
RPMI-8226 leukemia
  TGI: > 100 µM
RXF 393 renal
  TGI: > 100 µM
RXF-631 renal
  TGI: > 100 µM
SF-268 CNS
  TGI: > 100 µM
SF-295 CNS
  TGI: > 100 µM
SF-539 CNS
  TGI: > 100 µM
SK-MEL-2 melanoma
  TGI: > 100 µM
SK-MEL-28 melanoma
  TGI: > 100 µM
SK-MEL-5 melanoma
  TGI: > 100 µM
SK-OV-3 ovarian
  TGI: > 100 µM
SN12C renal
  TGI: > 100 µM
SNB-19 CNS
  TGI: > 100 µM
SNB-75 CNS
  TGI: > 100 µM
SNB-78 CNS
  TGI: > 100 µM
SR leukemia
  TGI: > 100 µM
SW-620 colon
  TGI: > 100 µM
TK-10 renal
  TGI: > 100 µM
U251 CNS
  TGI: > 100 µM
UACC-257 melanoma
  TGI: > 100 µM
UACC-62 melanoma
  TGI: > 100 µM
UO-31 renal
  TGI: > 100 µM
XF 498 CNS
  TGI: > 100 µM

## c1ccc2c(c1)OCCc1cn[nH]c1-2
A498 renal
  TGI: > 100 µM
A549 NSCLC
  TGI: > 100 µM
CAKI-1 renal
  TGI: 87.9 µM
CCRF-CEM leukemia
  TGI: > 100 µM
COLO 205 colon
  TGI: > 100 µM
DLD-1 colon
  TGI: > 100 µM
DMS 114 small cell lung
  TGI: > 100 µM
DMS 273 small cell lung
  TGI: > 100 µM
EKVX NSCLC
  TGI: > 100 µM
HCC-2998 colon
  TGI: > 100 µM
HCT-116 colon
  TGI: > 100 µM
HCT-15 colon
  TGI: > 100 µM
HL-60(TB) leukemia
  TGI: > 100 µM
HOP-18 NSCLC
  TGI: > 100 µM
HOP-62 NSCLC
  TGI: > 100 µM
HOP-92 NSCLC
  TGI: > 100 µM
HT29 colon
  TGI: > 100 µM
IGROV1 ovarian
  TGI: > 100 µM
K-562 leukemia
  TGI: > 100 µM
KM12 colon
  TGI: > 100 µM
KM20L2 colon
  TGI: > 100 µM
LOX IMVI melanoma
  TGI: > 100 µM
MALME-3M melanoma
  TGI: > 100 µM
MCF7 breast
  TGI: > 100 µM
MOLT-4 leukemia
  TGI: > 100 µM
NCI-H226 lung
  TGI: 95.5 µM
NCI-H23 lung
  TGI: > 100 µM
NCI-H460 lung
  TGI: > 100 µM
NCI-H522 lung
  TGI: > 100 µM
NCI/ADR-RES ovarian
  TGI: > 100 µM
OVCAR-3 ovarian
  TGI: > 100 µM
OVCAR-4 ovarian
  TGI: > 100 µM
OVCAR-5 ovarian
  TGI: > 100 µM
OVCAR-8 ovarian
  TGI: > 100 µM
P388 leukemia
  TGI: > 100 µM
P388/ADR leukemia
  TGI: > 100 µM
RXF 393 renal
  TGI: > 100 µM
SF-268 CNS
  TGI: > 100 µM
SF-295 CNS
  TGI: > 100 µM
SF-539 CNS
  TGI: > 100 µM
SK-MEL-2 melanoma
  TGI: > 100 µM
SK-MEL-28 melanoma
  TGI: > 100 µM
SK-MEL-5 melanoma
  TGI: > 100 µM
SK-OV-3 ovarian
  TGI: > 100 µM
SN12C renal
  TGI: > 100 µM
SN12K1 renal
  TGI: > 100 µM
SNB-19 CNS
  TGI: > 100 µM
SNB-75 CNS
  TGI: > 92.5 µM
SNB-78 CNS
  TGI: > 100 µM
SW-620 colon
  TGI: > 100 µM
U251 CNS
  TGI: > 100 µM
UACC-257 melanoma
  TGI: > 100 µM
UACC-62 melanoma
  TGI: > 100 µM
UO-31 renal
  TGI: > 100 µM
XF 498 CNS
  TGI: > 100 µM
